Like-named read-outs stand apart in the source and are kept apart here.
Experiments:
[1] = biological target: T1, biotin carboxylase from Escherichia coli (Escherichia coli, UniProt P24182); assay: Biotin carboxylase inhibition assay (spectrophotometric, ADP production coupled to pyruvate kinase/lactate dehydrogenase); type: biochemical
T1 construct: histidine-tag (N); made in house; host or cells: E. coli BL21(DE3)pLysS
Experimental: It catalyzes the first partial reaction shown above as reaction (1). […] See S. Li et al., J. Biol. Chem., vol. 267, 855-863 (1992); and H. Kondo et al., Proc. Natl. Acad. Sci. USA, vol. 88, pp. 9730-9733 (1991).
Purification was performed with a histidine-tag attached to the amino terminus of a mutant form of the enzyme and nickel affinity chromatography as described in C. […] 38, pp. 3393-3400 (1999).
The amount of ADP was determined using pyruvate kinase and lactate dehydrogenase, and the oxidation of NADH was followed at 340 nm. Each measurement was carried out in a volume of 0.5 ml in 1 cm path length quartz cuvettes. The reaction mixture contained 10 units of pyruvate kinase, 18 units of lactate dehydrogenase, 0.5 mM phosphoenolpyruvate, 0.2 mM NADH, 8 mM MgCl2 and 100 mM HEPES at pH 8.0. For inhibition studies compound 1 was dissolved in water, and the pH adjusted to 8 with HCl. The concentration of compound 1 was assayed by phosphorus analysis using the method of B. Ames et al., J. Biol. Chem., vol. 235, pp. 769-775 (1960).

[2] = Water solubility (observation at synthesis); type: physicochemical

## O=C(O)CCCCC1SCC2C1NC(=O)N2C(=O)CP(=O)(O)O (stereo not drawn) [Compound 1, 5-(6,8-Diaza-7-oxo-6-(2-phosphonoacetyl)-3-thiabicyclo[3.3.0] Oct-2-yl) pentanoic acid]
[1]; competitive inhibition versus ATP, read-out: slope inhibition constant
  Ki: 8 mM
[1]; preliminary characterization, 9 mM bicarbonate, 0.1 mM ATP, 100 mM biotin, pH 8.0, read-out: inhibition constant
  Ki: ~8 mM
[2]
  water solubility: water soluble

## O=C(O)CP(=O)(O)O [Phosphonoacetate]
[1]; versus ATP
  type of inhibition versus ATP: competitve inhibition
[1]; versus bicarbonate
  type of inhibition versus bicarbonate: noncompetitve inhibition

## O=C(O)CCCC[C@@H]1SC[C@@H]2NC(=O)N[C@@H]21 [biotin]
[1]; biotin as substrate
  substrate inhibition of biotin carboxylase: noncompetitive substrate inhibitor

Reference: patent US6555528B2 (Board of Supervisors of Louisiana State University and …, priority 1999, dated 2003)
